BindingDB's records for doi:10.1021/jm101238d (University of Salerno, 2011)

What follows are compounds tested against Prostaglandin E synthase, mPGES-1 (Homo sapiens) (UniProt O14684) (assay: Inhibition of Prostaglandin E2 synthase-1 in IL1-beta stimulated microsomal fraction of human A549 cell assessed as PGE2 level by RP-HPLC).
Sequence of Prostaglandin E synthase, mPGES-1 (Homo sapiens) (O14684 whole entry, looked up): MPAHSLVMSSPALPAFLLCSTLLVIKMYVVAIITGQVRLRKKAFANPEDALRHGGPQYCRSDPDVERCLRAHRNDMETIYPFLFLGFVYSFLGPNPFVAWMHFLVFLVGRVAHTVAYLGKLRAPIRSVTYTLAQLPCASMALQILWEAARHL
Oc1cccc(-c2ccc(-c3cn(CSc4ccccc4)nn3)cc2)c1 [4'-(1-Phenylsulfanylmethyl-1H-[1,2,3]triazol-4-yl)-biphenyl-3-ol] was tested, and the IC50 was > 30 µM. With Oc1ccc(-c2ccc(-c3cn(CSc4ccccc4)nn3)cc2)cc1 [4'-(1-Phenylsulfanylmethyl-1H-[1,2,3]triazol-4-yl)-biphenyl-4-ol] the IC50 was > 30 µM. Cc1ccccc1CCn1cc(-c2ccc(-c3ccc(N)cc3)cc2)nn1 [4'-[1-(2-o-Tolyl-ethyl)-1H-[1,2,3]triazol-4-yl]-biphenyl-4-ylamine] was tested, and the IC50 was > 30 µM. With Oc1ccc(-c2ccc(-c3cn(CCCc4ccccc4)nn3)cc2)cc1 [4'-[1-(3-Phenyl-propyl)-1H-[1,2,3]triazol-4-yl]-biphenyl-4-ol] the IC50 was > 30 µM. With c1ccc(CCCn2cc(-c3ccc(-c4ccc(Oc5ccccc5)cc4)cc3)nn2)cc1 [4-(4'-Phenoxy-biphenyl-4-yl)-1-(3-phenyl-propyl)-1H-[1,2,3]triazole] the IC50 was > 30 µM. O=C(O)c1ccc(Cn2cc(-c3ccc(-c4ccccc4)cc3)nn2)c([N+](=O)[O-])c1 [4-(4-Biphenyl-4-yl-[1,2,3]triazol-1-ylmethyl)-3-nitro-benzoic acid] was tested, and the IC50 was 3.2 µM. In the case of c1ccc(CCCn2cc(-c3ccc(-c4cc5ccccc5c5ccccc45)cc3)nn2)cc1 [4-(4-Phenanthren-9-yl-phenyl)-1-(3-phenyl-propyl)-1H-[1,2,3]triazole], the IC50 is reported as > 30 µM. O=Cc1ccc(-c2c(Cc3ccccc3)nnn2CSc2ccccc2)cc1 [4-(5-Benzyl-3-phenylsulfanylmethyl-3H-[1,2,3]triazol-4-yl)-benzaldehyde] was tested, and the IC50 was > 30 µM. Cc1ccccc1CCn1cc(-c2ccc(-c3ccccc3COc3cc(C(F)(F)F)ccc3Cl)cc2)nn1 [4-[2'-(2-Chloro-5-trifluoromethyl-phenoxymethyl)-biphenyl-4-yl]-1-(2-o-tolyl-ethyl)-1H-[1,2,3]triazole] was tested, and the IC50 was > 30 µM. In the case of FC(F)(F)c1ccc(Cl)c(OCc2ccccc2-c2ccc(-c3cn(CCCc4ccccc4)nn3)cc2)c1 [4-[2'-(2-Chloro-5-trifluoromethyl-phenoxymethyl)-biphenyl-4-yl]-1-(3-phenyl-propyl)-1H-[1,2,3]triazole], the IC50 is reported as > 30 µM. Cc1ccccc1CCn1cc(-c2ccc(-c3ccccc3COc3cccc4ccccc34)cc2)nn1 [4-[2'-(Naphthalen-1-yloxymethyl)-biphenyl-4-yl]-1-(2-o-tolyl-ethyl)-1H-[1,2,3]triazole] was tested, and the IC50 was > 30 µM. With c1ccc(CCCn2cc(-c3ccc(-c4ccccc4COc4cccc5ccccc45)cc3)nn2)cc1 [4-[2'-(Naphthalen-1-yloxymethyl)-biphenyl-4-yl]-1-(3-phenyl-propyl)-1H-[1,2,3]triazole] the IC50 was > 30 µM. For O=C(O)c1ccc(S(=O)(=O)n2cc(-c3ccc(-c4ccccc4COc4cccc5ccccc45)cc3)nn2)cc1 [4-{4-[2'-(Naphthalen-1-yloxymethyl)-biphenyl-4-yl]-1,2,3]triazole-1-sulfonyl}-benzoic acid], the IC50 was > 30 µM. In the case of CN(C)c1cccc2c(S(=O)(=O)Nc3ccc(-c4ccc(-c5cn(CCCc6ccccc6)nn5)cc4)cc3)cccc12 [5-Dimethylamino-naphthalene-1-sulfonic acid{4'-[1-(3-phenyl-propyl)-1H-[1,2,3]triazol-4-yl]-biphenyl-4-yl}-amide], the IC50 is reported as > 30 µM. O=C(OCc1cn(CSc2ccccc2)nn1)c1ccccc1 [Benzoic acid 1-Phenylsulfanylmethyl-1H-[1,2,3]Triazol-4-ylmethyl Ester] was tested, and the IC50 was > 30 µM.
